In BigSolDB 2.1:

CC1=CC(=O)c2ccccc2C1=O
Settings	solubility (mole fraction)
in benzene, 299.44 K	0.109
in benzene, 304.83 K	0.13
in benzene, 309.71 K	0.152
in benzene, 313.92 K	0.174
in benzene, 317.75 K	0.197
in benzene, 321.86 K	0.224
in benzene, 326.75 K	0.262
in benzene, 330.75 K	0.297
in benzene, 334.65 K	0.334
in benzene, 338.96 K	0.379
in ethylbenzene, 302.85 K	0.0976
in ethylbenzene, 309.44 K	0.122
in ethylbenzene, 314.77 K	0.146
in ethylbenzene, 319.53 K	0.173
in ethylbenzene, 323.75 K	0.199
in ethylbenzene, 327.93 K	0.228
in ethylbenzene, 331.75 K	0.26
in ethylbenzene, 335.44 K	0.297
in ethylbenzene, 339.42 K	0.342
in ethylbenzene, 343.86 K	0.396
in m-xylene, 301.65 K	0.127
in m-xylene, 307.74 K	0.151
in m-xylene, 312.76 K	0.176
in m-xylene, 317.36 K	0.202
in m-xylene, 321.64 K	0.23
in m-xylene, 325.94 K	0.258
in m-xylene, 329.73 K	0.288
in m-xylene, 333.64 K	0.323
in m-xylene, 337.61 K	0.364
in m-xylene, 341.55 K	0.411
in o-xylene, 302.95 K	0.14
in o-xylene, 309.24 K	0.169
in o-xylene, 314.25 K	0.194
in o-xylene, 318.34 K	0.219
in o-xylene, 322.45 K	0.245
in o-xylene, 326.77 K	0.274
in o-xylene, 330.54 K	0.305
in o-xylene, 334.23 K	0.34
in o-xylene, 338.32 K	0.383
in o-xylene, 342.43 K	0.432
in p-xylene, 302.5 K	0.129
in p-xylene, 309.53 K	0.158
in p-xylene, 314.64 K	0.184
in p-xylene, 318.96 K	0.21
in p-xylene, 323.35 K	0.239
in p-xylene, 327.68 K	0.269
in p-xylene, 332.02 K	0.304
in p-xylene, 335.89 K	0.344
in p-xylene, 340.1 K	0.39
in p-xylene, 344.24 K	0.44
in toluene, 303.44 K	0.119
in toluene, 308.84 K	0.143
in toluene, 313.63 K	0.166
in toluene, 317.65 K	0.189
in toluene, 321.85 K	0.216
in toluene, 325.99 K	0.246
in toluene, 330.04 K	0.277
in toluene, 333.86 K	0.311
in toluene, 337.8 K	0.351
in toluene, 342.59 K	0.404
